Results: US12508320B2, “Drug conjugate, pharmaceutical composition and method of treating hepatitis” (SeeCure Taiwan Co., Ltd., priority 2023, dated 2025)

What was measured:
[1] = system: HepG2 2.2.15 cells (a cell line that expresses the hepatitis B virus); assay: In vitro cell line evaluation: HBsAg/HBeAg levels in culture media of HepG2 2.2.15 cells (AXSYM system kit); format: cell-based; design: HBsAg level: unit of the concentration uncertain; settings: 6-9 days of incubation
Procedure: In the following experimental examples, when HepG2 2.2.15 cells (a cell line that expresses the hepatitis B virus) are used, the cells are maintained in Dulbecco's modified Eagle's medium (DMEM) (Gibco BRL, Grand Island, NY, USA) plus 10% fetal bovine serum (Hyclone, Logan, UT, USA), 100U/mL penicillin, […] streptomycin. HepG2.2.15 cells were seeded at the same density and used as a medium control. The experimental group is composed by administering the substance in the concentration specified by the manufacturer. All cultures were grown in humidified incubators at 37° C. and 5% CO2.
HepG2 2.2.15 cells were plated into 12-well microtiter plates. On day zero, the cells were washed several times with PBS and treated with tetracycline-free medium that contained either a test drug or a vehicle control group. Each test compound was screened at one concentration in triplicate. On day 3, day 6 and/or day 9, the medium was removed and replaced with fresh medium containing the compound. Twenty-four hours later, the medium was collected and clarified by centrifugation (Sorvall RT-6000D centrifuge, 1,000 rpm, 5 min). Media of HepG2 2.2.15 cells cultures were harvested at 3—, 6-, and 9-days post-HBV infection, and levels of hepatitis B surface antigen (HBsAg) and hepatitis B e antigen (HBeAg) in culture media were measured using an AXSYM system kit (Abbott Diagnostika).
In experimental example 1, five hepatitis treatment groups were prepared and added to HepG2 2.2.15 cells for evaluation. Group 1 is a control group containing only medium (PBS), whereby no drug compound is added. Group 2 is where a conventional drug Entecavir […] is used alone. Group 3 (CPD-0148) is directed to a compound of formula (IA2) […]. Group 4 (CPD-0150) is directed to a compound of formula (IA3) […]. Group 5 (CPD-0147) is directed to a compound of formula (IA4) […]. After 6-9 days of incubation with the above treatment groups, the levels of hepatitis B surface antigen (HBsAg) were measured using an AXSYM system kit (Abbott Diagnostika), and the results are shown in FIG. 10.
In experimental example 2, eight hepatitis treatment groups were prepared and added to HepG2 2.2.15 cells for evaluation. Group 1 is a control group containing only medium (PBS), whereby no drug compound is added. Group 2 is where a conventional drug Birinapant […] is used alone. Group 3 (CPD-0004) is directed to a compound of formula (IB1) […]. Group 4 (CPD-0030) is directed to a compound of formula (IB7) […]. Group 5 (CPD-0036) is directed to a compound of formula (IB2) […]. Group 6 (CPD-0133) is directed to a compound of formula (IB3) […]. Group 7 (CPD-0142) is directed to a compound of formula (IB4) […]. Group 8 (CPD-0186) is directed to a compound of formula (IB5) […]. After 6-9 days of incubation with the above treatment groups, the levels of hepatitis B surface antigen (HBsAg) were measured using an AXSYM system kit (Abbott Diagnostika), and the results are shown in FIG. 11.
In experimental example 3, thirteen hepatitis treatment groups were prepared and added to HepG2 2.2.15 cells for evaluation. Group 1 is a control group containing only medium (PBS), whereby no drug compound is added. Group 2 (Teno-Int) is where an intermediate of the conventional drug Tenofovir (100 mM; structure shown in first step of FIG. 3) is used alone. Group 3 (CPD-0134) is directed to a compound of formula (IC1) […]. Group 4 (CPD-0136) is directed to a compound of formula (IC2) […]. Group 5 (CPD-0137) is directed to a compound of formula (IC3) (510 mM). Group 6 (CPD-0138) is directed to a compound of formula (IC4) […]. Group 7 (CPD-0139) is directed to a compound of formula (IC5) […]. Group 8 (CPD-0143) is directed to a compound of formula (IC6) […]. Group 9 (CPD-0144) is directed to a compound of formula (IC7) […]. Group 10 (CPD-0149) is directed to a compound of formula (IC8) […]. Group 11 (CPD-0158) is directed to a compound of formula (IC9) […]. Group 12 (CPD-0169) is directed to a compound of formula (IC10) […]. […]

[2] = clinical studies, Birinapant used in combination with HBV drugs such as Tenofovir or Entecavir; cited from earlier work
[3] = Experimental example 6, HepG2 2.2.15 cells, 100 mM (each), FIG. 15

## CC[C@H](NC(=O)[C@H](C)NC)C(=O)N1C[C@@H](O)C[C@H]1Cc1c(-c2[nH]c3cc(F)ccc3c2C[C@@H]2C[C@H](O)CN2C(=O)[C@H](CC)NC(=O)[C@H](C)NC)[nH]c2cc(F)ccc12 [Birinapant]
[1]; Experimental example 2, HepG2 2.2.15 cells, 500 (unit uncertain), FIG. 11
  HBsAg level: capable of reducing the HBsAg level as compared with the control
[2]
  side effects: cranial nerve palsies (or Bell's palsies)

## C=C1[C@H](CO)[C@@H](O)C[C@@H]1n1cnc2c(=O)[nH]c(N)nc21 [Entecavir]
[1]; Experimental example 1, HepG2 2.2.15 cells, 100 (unit uncertain), FIG. 10
  HBsAg level: capable of reducing the HBsAg level as compared with the control
[1]; [3]
  HBeAg level: effective in reducing the HBsAg and HBeAg levels as compared with the control
  HBsAg level: effective in reducing the HBsAg and HBeAg levels as compared with the control

## CN[C@@H](C)C(=O)N[C@H](C(=O)N1CCC[C@H]1c1nc(C(=O)c2ccc(F)cc2)cs1)C1CCCCC1 [LCL161]
[1]; Experimental example 4, HepG2 2.2.15 cells, 500 (unit uncertain), FIG. 13
  HBsAg level: capable of reducing the HBsAg level as compared with the control

## C[C@@H](O)Cn1cnc2c(N)ncnc21 [Teno-Int, (R)-1-(6-amino-9H-purin-9-yl)propan-2-ol]
[1]; Experimental example 3, HepG2 2.2.15 cells, 100 mM (IC3: 510 mM), FIG. 12
  HBsAg level: slightly reduced as compared to the control
